Results as given in patent publication US6737383B1, “Herbicidal oxadiazolidines” (priority 1999, dated 2004).

Experiments:
[1] = system: blackgrass; test: Test B pre/postemergence blackgrass; format: in vivo, Alopecurus myosuroides
Summary of the method: (§1)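 Herbicidal effect was estimated by eye on a ten-point control scale after plants spent twelve to sixteen days in a greenhouse following soil or foliar treatment. Foliar sprays targeted plants at one to four leaves; all doses were formulated in a non-phytotoxic solvent with surfactant.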

[2] = system: surinam grass; test: Test B pre/postemergence surinam grass; format: in vivo, Brachiaria decumbens
Summary of the method: as §1

[3] = system: cocklebur; test: Test B pre/postemergence cocklebur; format: in vivo, Xanthium strumarium
Summary of the method: as §1

[4] = system: corn; test: Test B pre/postemergence corn; format: in vivo, Zea mays
Summary of the method: as §1

[5] = system: crabgrass; test: Test B pre/postemergence crabgrass; format: in vivo, Digitaria sanguinalis
Summary of the method: as §1

[6] = system: giant foxtail; test: Test B pre/postemergence giant foxtail; format: in vivo, Setaria faberii
Summary of the method: as §1

[7] = system: morningglory; test: Test B pre/postemergence morningglory; format: in vivo, Ipomoea hederacea; conditions: for Plant response rating, Morningglory: scale of 0 to 10 where 0 is no effect and 10 is complete control
Summary of the method: as §1

[8] = system: pigweed; test: Test B pre/postemergence pigweed; format: in vivo, Amaranthus retroflexus; conditions: for Plant response rating, Redroot pigweed: scale of 0 to 10 where 0 is no effect and 10 is complete control
Summary of the method: as §1

[9] = system: rape; test: Test B pre/postemergence rape; format: in vivo, Brassica napus; conditions: for Plant response rating, Rape: scale of 0 to 10 where 0 is no effect and 10 is complete control
Summary of the method: as §1

[10] = system: soybean; test: Test B pre/postemergence soybean; format: in vivo, Glycine max; conditions: for Plant response rating, Soybean: scale of 0 to 10 where 0 is no effect and 10 is complete control
Summary of the method: as §1

[11] = system: sugar beet; test: Test B pre/postemergence sugar beet; format: in vivo, Beta vulgaris; conditions: for Plant response rating, Sugarbeets: scale of 0 to 10 where 0 is no effect and 10 is complete control
Summary of the method: as §1

[12] = system: velvetleaf; test: Test B pre/postemergence velvetleaf; format: in vivo, Abutilon theophrasti; conditions: for Plant response rating, Velvetleaf: scale of 0 to 10 where 0 is no effect and 10 is complete control
Summary of the method: as §1

[13] = system: wheat; test: Test B pre/postemergence wheat; format: in vivo, Triticum aestivum; conditions: for Plant response rating, Wheat: scale of 0 to 10 where 0 is no effect and 10 is complete control
Summary of the method: as §1

[14] = system: wild oat; test: Test B pre/postemergence wild oat; format: in vivo, Avena fatua; conditions: for Plant response rating, Wild oats: scale of 0 to 10 where 0 is no effect and 10 is complete control
Summary of the method: as §1

[15] = system: purple nutsedge; test: Test B pre/postemergence purple nutsedge; format: in vivo, Cyperus rotundus; conditions: for Plant response rating, Nutsedge: scale of 0 to 10 where 0 is no effect and 10 is complete control
Summary of the method: as §1

[16] = system: rice; test: Test B flood test rice; format: in vivo, Oryza sativa
Summary of the method: (§2)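 Flood test on plants grown to the 2-leaf stage; treated plants kept in greenhouse twelve to sixteen days, then visually rated against controls on a 0 (no effect) to 10 (complete control) scale.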

[17] = system: smallflower flatsedge; test: Test B flood test smallflower flatsedge; format: in vivo, Cyperus difformis
Summary of the method: as §2

[18] = system: duck salad; test: Test B flood test duck salad; format: in vivo, Heteranthera limosa
Summary of the method: as §2

[19] = system: bamyardgrass; test: Test B flood test barnyardgrass; format: in vivo, Echinochloa crus-galli
Summary of the method: as §2

[20] = Postemergence, Rate 250 g/ha, scale 0 to 10
[21] = Postemergence, Rate 500 g/ha, scale of 0 to 10 where 0 is no effect and 10 is complete control
[22] = Preemergence, Rate 62 g/ha, scale of 0 to 10 where 0 is no effect and 10 is complete control
[23] = Preemergence, Rate 125 g/ha, scale of 0 to 10 where 0 is no effect and 10 is complete control
[24] = Preemergence, Rate 250 g/ha, scale 0 to 10, 0 is no effect, 10 is complete control
[25] = Preemergence, Rate 500 g/ha, scale 0 to 10, 0 is no effect, 10 is complete control
[26] = Rate 62 g/ha, Postemergence, scale 0 to 10 (0 no effect, 10 complete control)
[27] = Rate 125 g/ha, Postemergence, scale 0 to 10, 0 is no effect, 10 is complete control
[28] = Rate 62 g/ha, flood test species, Pre-emergence, visual evaluation after twelve to sixteen days
[29] = Rate 125 g/ha, under heading Pre-emergence, flood test species, visual evaluation after twelve to sixteen days
[30] = Rate 250 g/ha, Pre-emergence (flood test species), scale 0 to 10, 0 is no effect, 10 is complete control
[31] = Rate 500 g/ha, Pre-emergence, flood test species, scale 0 to 10 (0 no effect, 10 complete control)

CC(C)N(C(=O)n1oc(=O)n(CCS(C)(=O)=O)c1=O)c1ccc(F)cc1 [Compound 453]
Blackgrass plant response rating [1, 20]: 6 | Blackgrass plant response rating [1, 21]: 6 | Plant response rating, Blackgrass [1, 22]: 0 | Plant response rating, Blackgrass [1, 23]: 0 | Blackgrass plant response rating [1, 24]: 3 | Blackgrass plant response rating [1, 25]: 5 | Blackgrass plant response rating [1, 26]: 0 | Blackgrass plant response rating [1, 27]: 0 | B. signalgrass plant response rating ([2]; Postemergence, Rate 250 g/ha, scale 0 to 10, 0 no effect, 10 complete control): 2 | B. signalgrass plant response rating [2, 21]: 5 | Plant response rating, B. signalgrass [2, 22]: 0 | Plant response rating, B. signalgrass [2, 23]: 2 | B. signalgrass plant response rating [2, 24]: 6 | B. signalgrass plant response rating [2, 25]: 6 | B. signalgrass plant response rating [2, 26]: 0 | B. signalgrass plant response rating [2, 27]: 0 | Cocklebur plant response rating [3, 20]: 0 | Cocklebur plant response rating [3, 21]: 0 | Plant response rating, Cocklebur [3, 22]: 0 | Plant response rating, Cocklebur [3, 23]: 0 | Cocklebur plant response rating [3, 24]: 0 | Cocklebur plant response rating [3, 25]: 0 | Cocklebur plant response rating [3, 26]: 0 | Cocklebur plant response rating [3, 27]: 0 | Corn plant response rating [4, 20]: 0 | Corn plant response rating [4, 21]: 0 | Plant response rating, Corn [4, 22]: 0 | Plant response rating, Corn [4, 23]: 0 | Corn plant response rating [4, 24]: 0 | Corn plant response rating [4, 25]: 3 | Corn plant response rating [4, 26]: 0 | Corn plant response rating [4, 27]: 0 | Crabgrass plant response rating [5, 20]: 4 | Crabgrass plant response rating [5, 21]: 10 | Plant response rating, Crabgrass [5, 22]: 5 | Plant response rating, Crabgrass [5, 23]: 6 | Crabgrass plant response rating [5, 24]: 6 | Crabgrass plant response rating [5, 25]: 7 | Crabgrass plant response rating [5, 26]: 0 | Giant foxtail plant response rating [6, 20]: 7 | Giant foxtail plant response rating [6, 21]: 9 | Plant response rating, Giant foxtail [6, 22]: 7 | Plant response rating, Giant foxtail [6, 23]: 9 | Giant foxtail plant response rating [6, 24]: 10 | Giant foxtail plant response rating [6, 25]: 10 | Giant foxtail plant response rating [6, 26]: 3 | Giant foxtail plant response rating [6, 27]: 5 | Morningglory plant response rating [7, 20]: 2 | Plant response rating, Morningglory ([7]; Preemergence, Rate 62 g/ha): 0 | Plant response rating, Morningglory ([7]; Preemergence, Rate 125 g/ha): 0 | Morningglory plant response rating [7, 24]: 0 | Morningglory plant response rating [7, 25]: 3 | Morningglory plant response rating [7, 26]: 0 | Morningglory plant response rating [7, 27]: 0 | Redroot pigweed plant response rating [8, 20]: 0 | Plant response rating, Redroot pigweed ([8]; Preemergence, Rate 62 g/ha): 0 | Plant response rating, Redroot pigweed ([8]; Preemergence, Rate 125 g/ha): 4 | Redroot pigweed plant response rating [8, 24]: 6 | Redroot pigweed plant response rating [8, 25]: 10 | Redroot pigweed plant response rating [8, 26]: 0 | Redroot pigweed plant response rating [8, 27]: 0 | Rape plant response rating [9, 20]: 0 | Plant response rating, Rape ([9]; Preemergence, Rate 62 g/ha): 0 | Plant response rating, Rape ([9]; Preemergence, Rate 125 g/ha): 0 | Rape plant response rating [9, 24]: 0 | Rape plant response rating [9, 25]: 3 | Rape plant response rating [9, 26]: 0 | Rape plant response rating [9, 27]: 0 | Soybean plant response rating [10, 20]: 1 | Plant response rating, Soybean ([10]; Preemergence, Rate 62 g/ha): 0 | Plant response rating, Soybean ([10]; Preemergence, Rate 125 g/ha): 0 | Soybean plant response rating [10, 24]: 0 | Soybean plant response rating [10, 25]: 0 | Soybean plant response rating [10, 26]: 1 | Soybean plant response rating [10, 27]: 1 | Sugarbeets plant response rating [11, 20]: 0 | Plant response rating, Sugarbeets ([11]; Preemergence, Rate 62 g/ha): 0 | Plant response rating, Sugarbeets ([11]; Preemergence, Rate 125 g/ha): 0 | Sugarbeets plant response rating [11, 24]: 2 | Sugarbeets plant response rating [11, 25]: 5 | Sugarbeets plant response rating [11, 26]: 0 | Sugarbeets plant response rating [11, 27]: 0 | Velvetleaf plant response rating [12, 20]: 0 | Plant response rating, Velvetleaf ([12]; Preemergence, Rate 62 g/ha): 0 | Plant response rating, Velvetleaf ([12]; Preemergence, Rate 125 g/ha): 0 | Velvetleaf plant response rating [12, 24]: 2 | Velvetleaf plant response rating [12, 25]: 6 | Velvetleaf plant response rating [12, 26]: 0 | Velvetleaf plant response rating [12, 27]: 0 | Wheat plant response rating [13, 20]: 0 | Plant response rating, Wheat ([13]; Preemergence, Rate 62 g/ha): 0 | Plant response rating, Wheat ([13]; Preemergence, Rate 125 g/ha): 0 | Wheat plant response rating [13, 24]: 3 | Wheat plant response rating [13, 25]: 6 | Wheat plant response rating [13, 26]: 0 | Wheat plant response rating [13, 27]: 0 | Wild oats plant response rating [14, 20]: 0 | Plant response rating, Wild oats ([14]; Preemergence, Rate 62 g/ha): 0 | Plant response rating, Wild oats ([14]; Preemergence, Rate 125 g/ha): 0 | Wild oats plant response rating [14, 24]: 2 | Wild oats plant response rating [14, 25]: 8 | Wild oats plant response rating [14, 26]: 0 | Wild oats plant response rating [14, 27]: 0 | Nutsedge plant response rating [15, 20]: 0 | Plant response rating, Nutsedge ([15]; Preemergence, Rate 62 g/ha): 0 | Plant response rating, Nutsedge ([15]; Preemergence, Rate 125 g/ha): 0 | Nutsedge plant response rating [15, 24]: 0 | Nutsedge plant response rating [15, 26]: 0 | Nutsedge plant response rating [15, 27]: 0 | Plant response rating, Rice (0 to 10 scale, 0 is no effect, 10 is complete control) [16, 28]: 0 | Rice plant response rating (0 to 10 scale, 0 is no effect, 10 is complete control) [16, 29]: 0 | Rice plant response rating [16, 30]: 0 | Rice plant response rating [16, 31]: 0 | Plant response rating, S. Flatsedge (0 to 10 scale, 0 is no effect, 10 is complete control) [17, 28]: 0 | S. Flatsedge plant response rating (0 to 10 scale, 0 is no effect, 10 is complete control) [17, 29]: 0 | S. Flatsedge plant response rating [17, 30]: 0 | S. Flatsedge plant response rating [17, 31]: 0 | Plant response rating, Ducksalad (0 to 10 scale, 0 is no effect, 10 is complete control) [18, 28]: 0 | Ducksalad plant response rating (0 to 10 scale, 0 is no effect, 10 is complete control) [18, 29]: 0 | Ducksalad plant response rating [18, 30]: 0 | Ducksalad plant response rating [18, 31]: 0 | Plant response rating, Barnyardgrass (0 to 10 scale, 0 is no effect, 10 is complete control) [19, 28]: 0 | Barnyardgrass plant response rating (0 to 10 scale, 0 is no effect, 10 is complete control) [19, 29]: 0 | Barnyardgrass plant response rating [19, 30]: 0 | Barnyardgrass plant response rating [19, 31]: 0
